Bounds are passed on as bounds.

One test concerns 229E human corona virus (hCoV). Nature of the test: 229E live virus assay (CPE, ATPlite readout in MRC-5 cells). The test is classed as cell-based, hCoV-229E. Particulars: Human coronavirus 229E, MRC5, hCoV-229E live virus, MOI 0.05, ATPlite readout, run in duplicate.
Turning to `CC(C)C[C@@H](C(=O)N1C[C@]2(C[C@H]1C#N)C(=O)Nc1ccccc12)N(C)C(=O)c1cc2c(OC3CC3)cccc2[nH]1` [Example 82], the EC50 (usually the midpoint of the concentration-response curve) is < 100 nM.
Same read-out and setting: the same measure for `COc1cc(C(=O)N(C)[C@@H](CC(C)C)C(=O)N2C[C@]3(C[C@H]2C#N)C(=O)Nc2ccccc23)nc2ccccc12` [Example 258]: < 100 nM; for `CN(C(=O)C1(c2ccncc2)CC1)[C@@H](CC(C)(C)F)C(=O)N1C[C@]2(C[C@H]1C#N)C(=O)Nc1ccc(Cl)cc12` [Example 473, N-((S)-1-((3R,5'S)-5-chloro-5'-cyano-2-oxospiro[indoline-3,3'-pyrrolidin]-1'-yl)-4-fluoro-4-methyl-1-oxopentan-2-yl)-N-methyl-1-(pyridin-4-yl)cyclopropane-1-carboxamide]: 100 to 1000 nM; for `CN(C(=O)c1cc2c(F)cc(F)c(F)c2[nH]1)[C@@H](CC(C)(C)O)C(=O)N1C[C@]2(C[C@H]1C#N)C(=O)Nc1ccccc12` [Example 444]: 100 to 1000 nM.
Still for that read-out and setting: the same measure for `CC(C)C[C@@H](C(=O)N1C[C@]2(C[C@H]1C#N)C(=O)Nc1ccc(-n3cc(C4CC4)nn3)cc12)N(C)C(=O)c1cc2c(F)cc(F)cc2[nH]1` [Example 505, N-((S)-1-((3R,5'S)-5'-cyano-5-(4-cyclopropyl-1H-1,2,3-triazol-1-yl)-2-oxospiro[indoline-3,3'-pyrrolidin]-1'-yl)-4-methyl-1-oxopentan-2-yl)-4,6-difluoro-N-methyl-1H-indole-2-carboxamide]: < 100 nM; for `CC(C)C[C@@H](C(=O)N1C[C@]2(C[C@H]1C#N)C(=O)Nc1ccccc12)N(C)C(=O)c1ccc(Cl)c(C(F)(F)F)c1` [Example 174]: < 100 nM; for `CC(C)C[C@@H](C(=O)N1C[C@]2(C[C@H]1C#N)C(=O)Nc1ccccc12)N(C)C(=O)c1c(Cl)cc(Cl)cc1Cl` [Example 185]: < 100 nM.
Still for that read-out and setting: the same measure for `CC(C)C[C@@H](C(=O)N1C[C@]2(C[C@H]1C#N)C(=O)Nc1ccccc12)N(C)C(=O)c1cc2ccccc2s1` [Example 207]: < 100 nM; for `CC(C)(C)C[C@H](NC(=O)Nc1c(F)cccc1F)C(=O)N1C[C@]2(C[C@H]1C#N)C(=O)Nc1ccccc12` [Example 437]: < 100 nM.
`COc1cccc2[nH]c(C(=O)N[C@H](CC(C)(C)C)C(=O)N3C[C@]4(C[C@H]3C#N)C(=O)Nc3ccccc34)cc12` [Example 16] returned a 50% effective concentration (EC50) of 100 to 1000 nM.
On to `CC(C)C[C@@H](C(=O)N1C[C@]2(C[C@H]1C#N)C(=O)Nc1ccccc12)N(C)C(=O)COc1ccccc1` [Example 229], for which the EC50 is < 100 nM.
For `[2H]C([2H])([2H])N(C(=O)c1cn(-c2ccc(Cl)cc2)nn1)[C@@H](CC(C)(C)C)C(=O)N1C[C@]2(C[C@H]1C#N)C(=O)Nc1ccccc12` [Example 377], the EC50 is < 100 nM.
The same measure, in the same setting: the same measure for `CC(C)C[C@@H](C(=O)N1C[C@]2(C[C@H]1C#N)C(=O)Nc1ccccc12)N(C)C(=O)c1cc(F)c2nc(C3CC3)cn2c1` [Example 318]: < 100 nM.
Same read-out and setting: then `CC(C)C[C@@H](C(=O)N1C[C@]2(C[C@H]1C#N)C(=O)Nc1ccccc12)N(C)C(=O)c1cc2c(Cl)cccc2[nH]1` [Example 65], with < 100 nM; and `CC(C)(C)C[C@H](NC(=O)c1cnn(-c2ccc(C(F)(F)F)cc2)c1)C(=O)N1C[C@]2(C[C@H]1C#N)C(=O)Nc1ccccc12` [Example 145], with < 100 nM; and `CC(C)C[C@@H](C(=O)N1C[C@]2(C[C@H]1C#N)C(=O)Nc1ccccc12)N(C)C(=O)c1ccn[nH]1` [Example 202], with < 100 nM.
On the same count and under the same terms, the same measure for `CC(C)(C)C[C@H](NC(=O)c1cc2c(Cl)cccc2[nH]1)C(=O)N1C[C@]2(C[C@H]1C#N)C(=O)Nc1ccc(Cl)cc12` [Example 450]: < 100 nM; for `CN(C(=O)C(F)(F)c1ccncc1)[C@@H](CC(C)(C)F)C(=O)N1C[C@]2(C[C@H]1C#N)C(=O)Nc1ccc(Cl)cc12` [Example 480]: < 100 nM.
With `CC(C)C[C@@H](C(=O)N1C[C@]2(C[C@H]1C#N)C(=O)Nc1ccccc12)N(C)C(=O)c1cc2sccc2[nH]1` [Example 209], the EC50 was < 100 nM.
The same measure, in the same setting: the same measure for `CC(C)C[C@@H](C(=O)N1C[C@]2(C[C@H]1C#N)C(=O)Nc1ccccc12)N(C)C(=O)c1ccc2c(Cl)ccnc2c1` [Example 271]: < 100 nM; for `CC(C)C[C@@H](C(=O)N1C[C@]2(C[C@H]1C#N)C(=O)Nc1ccccc12)N(C)C(=O)c1ccccc1-c1ccccc1` [Example 261]: 100 to 1000 nM; for `COc1cccc2[nH]c(C(=O)N(C)[C@@H](CC3CCCCC3)C(=O)N3C[C@]4(C[C@H]3C#N)C(=O)Nc3ccccc34)cc12` [Example 113]: < 100 nM.
The compound `CN(C(=O)C1(c2cccnc2)CC1)[C@@H](CC(C)(C)F)C(=O)N1C[C@]2(C[C@H]1C#N)C(=O)Nc1ccc(Cl)cc12` [Example 479] had an EC50 of 100 to 1000 nM.
On the same count and under the same terms, the same measure for `CC(C)C[C@@H](C(=O)N1C[C@]2(C[C@H]1C#N)C(=O)Nc1ccccc12)N(C)C(=O)c1cc(Cl)c2ncc(C3CC3)cc2c1` [Example 239]: < 100 nM; for `CN(C(=O)c1cc2c(F)c(F)ccc2[nH]1)[C@@H](CC(C)(C)C)C(=O)N1C[C@]2(C[C@H]1C#N)C(=O)Nc1ccccc12` [Example 86]: < 100 nM; for `CN(C(=O)C1(c2ccccn2)CC1)[C@@H](CC(C)(C)F)C(=O)N1C[C@]2(C[C@H]1C#N)C(=O)Nc1ccc(Cl)cc12` [Example 478]: 100 to 1000 nM.
Still for that read-out and setting: then `CC(C)C[C@@H](C(=O)N1C[C@]2(C[C@H]1C#N)C(=O)Nc1ccccc12)N(C)C(=O)c1ccc2cccnc2c1O` [Example 285], with < 100 nM; and `COc1cccc2[nH]c(C(=O)N(C)[C@@H](CC(C)C)C(=O)N3C[C@]4(C[C@H]3C#N)C(=O)Nc3ccccc34)cc12` [Example 42], with < 100 nM.
Same read-out and setting: the same measure for `CC(C)C[C@@H](C(=O)N1C[C@]2(C[C@H]1C#N)C(=O)Nc1ccccc12)N(C)C(=O)c1cnc2c(C(F)(F)F)cccc2c1` [Example 268]: < 100 nM.
For the compound `Cc1cccc2[nH]c(C(=O)N(C)[C@@H](CC(C)C)C(=O)N3C[C@]4(C[C@H]3C#N)C(=O)Nc3ccccc34)nc12` [Example 252], the EC50 was < 100 nM.
On the same count and under the same terms, then `CC(C)C[C@@H](C(=O)N1C[C@]2(C[C@H]1C#N)C(=O)Nc1ccccc12)N(C)C(=O)c1cccc(OC(F)(F)F)c1` [Example 189], with < 100 nM; and `CC(C)C[C@@H](C(=O)N1C[C@]2(C[C@H]1C#N)C(=O)Nc1ccccc12)N(C)C(=O)c1cc(F)cc(Cl)c1` [Example 173], with < 100 nM.
On the same count and under the same terms, then `Cc1ccc2cc(C(=O)N(C)[C@@H](CC(C)C)C(=O)N3C[C@]4(C[C@H]3C#N)C(=O)Nc3ccccc34)cc(OC3CC3)c2n1` [Example 321], with 100 to 1000 nM; and `CC(=O)c1ccc2c(c1)[C@@]1(C[C@@H](C#N)N(C(=O)[C@H](CC(C)C)N(C)C(=O)c3cc4c(F)cc(F)cc4[nH]3)C1)C(=O)N2` [Example 499, N-((S)-1-((3R,5'S)-5-acetyl-5'-cyano-2-oxospiro[indoline-3,3'-pyrrolidin]-1'-yl)-4-methyl-1-oxopentan-2-yl)-4,6-difluoro-N-methyl-1H-indole-2-carboxamide], with < 100 nM.
Same read-out and setting: the same measure for `CC(C)C[C@H](NC(=O)c1cc2c(F)cccc2[nH]1)C(=O)N1C[C@]2(C[C@H]1C#N)C(=O)Nc1ccccc12` [Example 27]: < 100 nM.
With `CC(C)C[C@@H](C(=O)N1C[C@]2(C[C@H]1C#N)C(=O)Nc1ccccc12)N(C)C(=O)[C@H](c1cnn(C)c1)C(C)C` [Example 349], the EC50 is 100 to 1000 nM.
On the same count and under the same terms, the same measure for `COc1cccc2[nH]c(C(=O)N(C)[C@@H](CCC(C)C)C(=O)N3C[C@]4(C[C@H]3C#N)C(=O)Nc3ccccc34)cc12` [Example 105]: < 100 nM.
The same measure, in the same setting: then `CC(C)C[C@@H](C(=O)N1C[C@]2(C[C@H]1C#N)C(=O)Nc1ccccc12)N(C)C(=O)c1cn(-c2ccc(F)cc2)nn1` [Example 283], with < 100 nM; and `COc1cccc2[nH]c(C(=O)N[C@@H](CC(C)C)C(=O)N3C[C@]4(C[C@H]3C#N)C(=O)Nc3ccccc34)cc12` [Example 11], with < 100 nM; and `CC(C)C[C@@H](C(=O)N1C[C@]2(C[C@H]1C#N)C(=O)Nc1ccccc12)N(C)C(=O)c1ccc2ccccc2n1` [Example 211], with < 100 nM.
The same measure, in the same setting: then `CC(C)C[C@@H](C(=O)N1C[C@]2(C[C@H]1C#N)C(=O)Nc1ccccc12)N(C)C(=O)c1ccc2ncc(C(F)(F)F)cc2c1` [Example 237], with < 100 nM; and `CC(C)C[C@@H](C(=O)N1C[C@]2(C[C@H]1C=O)C(=O)Nc1ccccc12)N(C)C(=O)c1cc2c(F)cc(F)cc2[nH]1` [Example 149], with < 100 nM.
For `CN(C(=O)c1cc2c(F)cc(F)cc2[nH]1)[C@@H](COC(C)(C)C)C(=O)N1C[C@]2(C[C@H]1C#N)C(=O)Nc1ccccc12` [Example 371], the EC50 was < 100 nM.
For `CC(C)(C)[C@H](NC(=O)OCc1ccccc1)C(=O)N1C[C@]2(C[C@H]1C#N)C(=O)Nc1ccccc12` [Example 3], the EC50 was > 1000 nM.
Same read-out and setting: then `CC(C)C[C@@H](C(=O)N1C[C@]2(C[C@H]1C#N)C(=O)Nc1ccccc12)N(C)C(=O)c1ccc2c(Br)cccc2n1` [Example 231], with < 100 nM.
Still for that read-out and setting: then `CC(C)(F)C[C@H](NC(=O)COc1ccc(F)cc1F)C(=O)N1C[C@]2(C[C@H]1C#N)C(=O)Nc1ccc(Cl)cc12` [Example 445], with 100 to 1000 nM; and `CC(C)C[C@@H](C(=O)N1C[C@]2(C[C@H]1C#N)C(=O)Nc1ccccc12)N(C)C(=O)c1ncccc1Cl` [Example 59], with > 1000 nM.
`CCCN(C(=O)OCc1ccccc1)[C@@H](CC(C)C)C(=O)N1C[C@]2(C[C@H]1C#N)C(=O)Nc1ccccc12` [Example 97]: the EC50 is > 1000 nM.
Consider `Cc1cc2cc(C(=O)N(C)[C@@H](CC(C)C)C(=O)N3C[C@]4(C[C@H]3C#N)C(=O)Nc3ccccc34)cc(OC(F)(F)F)c2nc1C` [Example 238], for which the EC50 is < 100 nM.
With `CC(C)C[C@@H](C(=O)N1C[C@]2(C[C@H]1C#N)C(=O)Nc1ccccc12)N(C)C(=O)c1cc(F)c2nn(C)cc2c1` [Example 309], the EC50 is < 100 nM.

The test is the same for the next values; noted with them: hCoV-229E live virus, MOI 0.05, ATPlite readout, run in duplicate.
For the compound `CC(C)C[C@@H](C(=O)N1C[C@]2(C[C@H]1C#N)C(=O)Nc1ccccc12)N(C)C(=O)[C@@H]1CCN(C(=O)OC(C)(C)C)C1` [Example 345], the EC50 is < 100 nM.
